Test results as given in publication PMC12638379, “An innovative approach to development of new pyrazolylquinolin-2-one hybrids as dual EGFR and BRAF^V600E inhibitors” (Molecular Diversity, 2025).
Read-outs that look alike come from different tables or passages of the source.

Assays:
[1] = system: leukemia (MOLT-4) cell line; experiment: MTT antiproliferative assay, MOLT-4; type: cell-based, human
Procedure: (§1) After 24 h of culture incubation and supernatants discarded.

[2] = system: lung cancer (HOP-92) cell line; experiment: MTT antiproliferative assay, HOP-92; type: cell-based, human
Procedure: […]. […] See Appendix B.
as §1

[3] = system: normal cell line WI-38; experiment: MTT cytotoxicity on normal cell line WI-38
[4] = MTT cytotoxicity on normal cell line WI-38; conditions: human, WI-38 normal cells, % viability
[5] = system: NCI 60 cancer cell lines; experiment: NCI anticancer screening over a panel of 60 cancer cells, single concentration 10 µM; type: cell-based, human; conditions: Homo sapiens, read-out: % Growth Inhibition (GI %)
Procedure, shortened: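 Run under the NCI Compound Evaluation Branch protocol, each compound was tested once at 10 µM. The panel comprised 60 cancer cell lines of diverse tissue origin, including leukemia, lung, colon, CNS, renal, ovarian, breast and prostate.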

[6] = target: T1, EGFR (Homo sapiens, UniProt P00533); experiment: EGFR inhibitory assay; type: biochemical; conditions: for %inh: EGFR, unit not given
T1 construct: EGFR cytoplasmic domain (EGFR-CD, amino acids 645–1186); His6 (N); made in house; host or cells: Sf-9 insect cells (baculovirus)
T1 sequence (P00533 669-1210): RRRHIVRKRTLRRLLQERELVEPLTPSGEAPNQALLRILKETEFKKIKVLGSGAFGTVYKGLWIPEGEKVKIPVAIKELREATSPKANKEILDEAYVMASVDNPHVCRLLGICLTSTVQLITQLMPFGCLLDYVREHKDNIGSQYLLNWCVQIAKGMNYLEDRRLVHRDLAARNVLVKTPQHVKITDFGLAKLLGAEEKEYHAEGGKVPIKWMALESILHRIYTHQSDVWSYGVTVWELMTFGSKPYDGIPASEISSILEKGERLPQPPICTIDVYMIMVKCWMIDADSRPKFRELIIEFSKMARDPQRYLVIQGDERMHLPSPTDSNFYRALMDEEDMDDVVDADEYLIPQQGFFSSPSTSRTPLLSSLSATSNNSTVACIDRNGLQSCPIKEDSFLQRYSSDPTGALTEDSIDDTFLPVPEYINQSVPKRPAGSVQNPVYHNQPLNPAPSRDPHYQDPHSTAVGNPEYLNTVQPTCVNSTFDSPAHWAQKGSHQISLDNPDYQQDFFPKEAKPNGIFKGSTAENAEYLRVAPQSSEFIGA

[7] = target: BRAF^V600E (Homo sapiens, UniProt P15056, V600E); experiment: BRAF^V600E inhibitory assay (B-Raf (V600E) Kinase Assay); type: biochemical; conditions: read-out: BRAF^V600E inhibition IC50 ± SEM
Chain of BRAF^V600E (P15056 whole entry V600E): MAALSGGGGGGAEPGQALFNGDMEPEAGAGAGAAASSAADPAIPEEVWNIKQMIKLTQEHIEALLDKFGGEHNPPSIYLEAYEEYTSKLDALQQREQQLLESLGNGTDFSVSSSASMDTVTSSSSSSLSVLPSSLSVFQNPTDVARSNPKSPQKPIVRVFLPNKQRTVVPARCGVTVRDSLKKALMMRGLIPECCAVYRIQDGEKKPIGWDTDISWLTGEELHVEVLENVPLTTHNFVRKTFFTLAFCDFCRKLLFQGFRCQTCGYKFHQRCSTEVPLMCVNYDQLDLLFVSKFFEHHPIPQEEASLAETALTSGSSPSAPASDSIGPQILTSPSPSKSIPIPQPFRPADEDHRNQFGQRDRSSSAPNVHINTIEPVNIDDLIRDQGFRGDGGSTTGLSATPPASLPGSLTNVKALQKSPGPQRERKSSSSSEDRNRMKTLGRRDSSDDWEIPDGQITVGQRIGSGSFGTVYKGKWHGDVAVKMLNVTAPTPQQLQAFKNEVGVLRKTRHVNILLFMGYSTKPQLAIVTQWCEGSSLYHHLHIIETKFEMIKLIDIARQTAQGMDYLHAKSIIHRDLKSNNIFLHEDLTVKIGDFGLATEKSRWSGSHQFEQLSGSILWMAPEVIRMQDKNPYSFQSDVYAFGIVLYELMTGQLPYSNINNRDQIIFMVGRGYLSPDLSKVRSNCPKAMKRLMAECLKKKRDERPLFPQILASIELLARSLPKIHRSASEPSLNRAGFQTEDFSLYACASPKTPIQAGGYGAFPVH

C/C(=N\Nc1ccc(C(=O)O)cc1)c1cnn(-c2cc(=O)[nH]c3ccccc23)c1C [Compound 4f, (E)-4-(2-(1-(5-methyl-1-(2-oxo-1,2-dihydroquinolin-4-yl)-1H-pyrazol-4-yl)ethylidene) hydrazineyl)benzoic acid]
viability at 0.4 µM ([1]; Homo sapiens, MOLT-4, MOLT-4, MTT, 0.4uM): 70.3% | viability at 1.6 µM ([1]; Homo sapiens, MOLT-4, MOLT-4, MTT, 1.6uM): 59.6% | viability at 6.3 µM ([1]; Homo sapiens, MOLT-4, MOLT-4, MTT, 6.3uM): 58.5% | viability at 25 µM ([1]; Homo sapiens, MOLT-4, MOLT-4, MTT, 25uM): 48.1% | viability at 100 µM ([1]; Homo sapiens, MOLT-4, MOLT-4, MTT, 100uM): 39.1% | IC50 ([1]; Homo sapiens, MOLT-4, MTT, read-out: Antiproliferative activity IC50 ± SEM, MOLT-4): 16.3 ± 0.65 µM | % viability ([1]; MOLT-4, MTT, 0.4uM, listed as ws6, 0.4 µM): 70.3059% | % viability ([1]; MOLT-4, MTT, 1.6uM, listed as ws6, 1.6 µM): 59.5561% | % viability ([1]; MOLT-4, MTT, 6.3uM, listed as ws6, 6.3 µM): 58.5483% | % viability ([1]; MOLT-4, MTT, 100uM, listed as ws6, 100 µM): 39.1122% | % viability ([2]; HOP-92, MTT, 0.4uM, listed as ws6, 0.4 µM): 83.3554% | % viability ([2]; HOP-92, MTT, 1.6uM, listed as ws6, 1.6 µM): 74.4032% | % viability ([2]; HOP-92, MTT, 6.3uM, listed as ws6, 6.3 µM): 64.3236% | % viability ([2]; HOP-92, MTT, 100uM, listed as ws6, 100 µM): 35.3448% | viability at 0.4 µM ([2]; Homo sapiens, HOP-92, HOP-92, MTT, 0.4uM, read-out: % viability): 83.4% | viability at 1.6 µM ([2]; Homo sapiens, HOP-92, HOP-92, MTT, 1.6uM, read-out: % viability): 74.4% | viability at 6.3 µM ([2]; Homo sapiens, HOP-92, HOP-92, MTT, 6.3uM, read-out: % viability): 64.3% | viability at 25 µM ([2]; Homo sapiens, HOP-92, HOP-92, MTT, 25uM, read-out: % viability): 51.8% | viability at 100 µM ([2]; Homo sapiens, HOP-92, HOP-92, MTT, 100uM, read-out: % viability): 35.3% | IC50 ([2]; Homo sapiens, HOP-92, MTT, read-out: Antiproliferative activity IC50 ± SEM, HOP-92): 24.9 ± 1.9 µM | IC50 ([3]; Homo sapiens, read-out: Antiproliferative activity IC50 ± SEM): 42.1 ± 1.68 µM | % viability ([3]; WI38, 0.4uM (log conc. -0.41), listed as ws6, 0.4 µM): 79.9762% | % viability ([3]; WI38, 1.6uM (log conc. 0.19), listed as ws6, 1.6 µM): 74.5098% | % viability ([3]; WI38, 6.3uM (log conc. 0.8), listed as ws6, 6.3 µM): 65.3595% | % viability ([3]; WI38, 100uM (log conc. 2), listed as ws6, 100 µM): 41.5924% | viability at 24 h, 0.4 µM ([4]; WI38, 0.4uM (log conc. -0.41)): 80% | viability at 24 h, 1.6 µM ([4]; WI38, 1.6uM (log conc. 0.19)): 74.5% | viability at 24 h, 6.3 µM ([4]; WI38, 6.3uM (log conc. 0.8)): 65.4% | viability at 24 h, 25 µM ([4]; WI38, 25uM (log conc. 1.4)): 54.9% | viability at 24 h, 100 µM ([4]; WI38, 100uM (log conc. 2)): 41.6% | inhibition at 10 µM ([5]; 786-0, Renal cancer 786-0, 10 μM): < 5% | inhibition at 10 µM ([5]; A498, Renal cancer A498, 10 μM): < 5% | inhibition at 10 µM ([5]; A549, Non-small cell lung cancer A549/ATCC, 10 μM): < 5% | inhibition at 10 µM ([5]; ACHN, Renal cancer ACHN, 10 μM): 5.83% | inhibition at 10 µM ([5]; BT-549, Breast cancer BT-549, 10 μM): < 5% | inhibition at 10 µM ([5]; CAKI-1, Renal cancer CAKI-1, 10 μM): 16.1% | inhibition at 10 µM ([5]; CCRF-CEM, Leukemia CCRF-CEM, 10 μM): < 5% | inhibition at 10 µM ([5]; COLO 205, Colon cancer COLO 205, 10 μM): < 5% | inhibition at 10 µM ([5]; DU-145, Prostate cancer DU-145, 10 μM): < 5% | inhibition at 10 µM ([5]; EKVX, Non-small cell lung cancer EKVX, 10 μM): < 5% | inhibition at 10 µM ([5]; HCC 2998, Colon cancer HCC-2998, 10 μM): < 5% | inhibition at 10 µM ([5]; HCT-15, Colon cancer HCT-15, 10 μM): < 5% | inhibition at 10 µM ([5]; HCT-116, Colon cancer HCT-116, 10 μM): < 5% | inhibition at 10 µM ([5]; HL-60, Leukemia HL-60(TB), 10 μM): < 5% | inhibition at 10 µM ([5]; HOP-62, Non-small cell lung cancer HOP-62, 10 μM): 8.55% | inhibition at 10 µM ([5]; HOP-92, Non-small cell lung cancer HOP-92, 10 μM): 79.8% | inhibition at 10 µM ([5]; HT-29, Colon cancer HT29, 10 μM): < 5% | inhibition at 10 µM ([5]; Hs-578T, Breast cancer HS 578T, 10 μM): 12.3% | inhibition at 10 µM ([5]; IGROV-1, Ovarian cancer IGROV1, 10 μM): < 5% | inhibition at 10 µM ([5]; K562, Leukemia K-562, 10 μM): < 5% | inhibition at 10 µM ([5]; KM12, Colon cancer KM12, 10 μM): < 5% | inhibition at 10 µM ([5]; LOX IMVI, Melanoma LOX IMVI, 10 μM): 10.8% | inhibition at 10 µM ([5]; Leukemia SR, 10 μM): 12.2% | inhibition at 10 µM ([5]; MCF7, Breast cancer MCF7, 10 μM): 5.99% | inhibition at 10 µM ([5]; MDA-MB-231, Breast cancer MDA-MB-231/ATCC, 10 μM): 12.5% | inhibition at 10 µM ([5]; MDA-MB-435, Melanoma MDA-MB-435, 10 μM): < 5% | inhibition at 10 µM ([5]; MDA-MB-468, Breast cancer MDA-MB-468, 10 μM): < 5% | inhibition at 10 µM ([5]; MOLT-4, Leukemia MOLT-4, 10 μM): < 5% | inhibition at 10 µM ([5]; Melanoma M14, 10 μM): 8.95% | inhibition at 10 µM ([5]; Melanoma MALM-3M, 10 μM): 9.22% | inhibition at 10 µM ([5]; NCI-H23, Non-small cell lung cancer NCI-H23, 10 μM): 7.19% | inhibition at 10 µM ([5]; NCI-H226, Non-small cell lung cancer NCI-H226, 10 μM): 10.9% | inhibition at 10 µM ([5]; NCI-H322M, Non-small cell lung cancer NCI-H322M, 10 μM): < 5% | inhibition at 10 µM ([5]; NCI-H460, Non-small cell lung cancer NCI-H460, 10 μM): < 5% | inhibition at 10 µM ([5]; NCI-H522, Non-small cell lung cancer NCI-H522, 10 μM): 13.9% | inhibition at 10 µM ([5]; NCI/ADR-RES, Ovarian cancer NCI/ADR-RES, 10 μM): < 5% | inhibition at 10 µM ([5]; OVCAR-3, Ovarian cancer OVCAR-3, 10 μM): < 5% | inhibition at 10 µM ([5]; OVCAR-4, Ovarian cancer OVCAR-4, 10 μM): 7.33% | inhibition at 10 µM ([5]; OVCAR-5, Ovarian cancer OVCAR-5, 10 μM): < 5% | inhibition at 10 µM ([5]; OVCAR-8, Ovarian cancer OVCAR-8, 10 μM): < 5% | inhibition at 10 µM ([5]; Prostate cancer PC-3, 10 μM): 12.4% | inhibition at 10 µM ([5]; RPMI-8226, Leukemia RPMI-8226, 10 μM): < 5% | inhibition at 10 µM ([5]; RXF 393, Renal cancer RXF 393, 10 μM): 11.1% | inhibition at 10 µM ([5]; SF-268, CNS Cancer SF-268, 10 μM): < 5% | inhibition at 10 µM ([5]; SF-295, CNS Cancer SF-295, 10 μM): < 5% | inhibition at 10 µM ([5]; SF-539, CNS Cancer SF-539, 10 μM): < 5% | inhibition at 10 µM ([5]; SK-MEL-2, Melanoma SK-MEL-2, 10 μM): < 5% | inhibition at 10 µM ([5]; SK-MEL-5, Melanoma SK-MEL-5, 10 μM): < 5% | inhibition at 10 µM ([5]; SK-MEL-28, Melanoma SK-MEL-28, 10 μM): < 5% | inhibition at 10 µM ([5]; SK-OV-3, Ovarian cancer SK-OV-3, 10 μM): < 5% | inhibition at 10 µM ([5]; SN12C, Renal cancer SN12C, 10 μM): < 5% | inhibition at 10 µM ([5]; SNB-19, CNS Cancer SNB-19, 10 μM): < 5% | inhibition at 10 µM ([5]; SNB-75, CNS Cancer SNB-75, 10 μM): 12.9% | inhibition at 10 µM ([5]; SW-620, Colon cancer SW-620, 10 μM): < 5% | inhibition at 10 µM ([5]; T47D, Breast cancer T-47D, 10 μM): < 5% | inhibition at 10 µM ([5]; TK-10, Renal cancer TK-10, 10 μM): < 5% | inhibition at 10 µM ([5]; U-251, CNS Cancer U251, 10 μM): < 5% | inhibition at 10 µM ([5]; UACC-62, Melanoma UACC-62, 10 μM): 6.43% | inhibition at 10 µM ([5]; UACC-257, Melanoma UACC-257, 10 μM): < 5% | inhibition at 10 µM ([5]; UO-31, Renal cancer UO-31, 10 μM): 45.2% | %inh ([6]; conc 0.01 (log -2)): 10.6% | %inh ([6]; conc 0.1 (log -1)): 26% | %inh ([6]; conc 1 (log 0)): 61.8% | %inh ([6]; conc 10 (log 1)): 80.6% | %inh ([6]; conc 100 (log 2)): 92.1% | IC50 ([6]; read-out: EGFR inhibition IC50 ± SEM): 0.64 ± 0.023 µM | IC50 [7]: 0.41 ± 0.016 µM
